In ChEMBL document CHEMBL4052688, “Design, synthesis and biological evaluation of novel 3H-imidazole [4,5-b] pyridine derivatives as selective mTOR inhibitors” (Bioorg Med Chem Lett, 2017):

Tests used:
[1] = molecular target: Phosphatidylinositol 4,5-bisphosphate 3-kinase catalytic subunit alpha isoform (Homo sapiens, UniProt P42336); test: Inhibition of PI3Kalpha (unknown origin) using lipid substrate by Kinase-Glo plus luminescence kinase assay or and ADP-Glo Plus luminescence kinase assay
[2] = molecular target: Serine/threonine-protein kinase mTOR (Homo sapiens, UniProt P42345); test: Inhibition of mTOR (unknown origin) by Kinase-Glo plus luminescence kinase assay or and ADP-Glo Plus luminescence kinase assay
[3] = test system: MCF7; test: cells; conditions: Homo sapiens, MCF7, 72 h
Description: Antiproliferative activity against human MCF7 cells incubated for 72 hrs by MTT assay

[4] = test system: A2780; test: cells; conditions: Homo sapiens, A2780, 72 h
Description: Antiproliferative activity against human A2780 cells incubated for 72 hrs by MTT assay

Sequence of Phosphatidylinositol 4,5-bisphosphate 3-kinase catalytic subunit alpha isoform (P42336 whole entry, canonical isoform): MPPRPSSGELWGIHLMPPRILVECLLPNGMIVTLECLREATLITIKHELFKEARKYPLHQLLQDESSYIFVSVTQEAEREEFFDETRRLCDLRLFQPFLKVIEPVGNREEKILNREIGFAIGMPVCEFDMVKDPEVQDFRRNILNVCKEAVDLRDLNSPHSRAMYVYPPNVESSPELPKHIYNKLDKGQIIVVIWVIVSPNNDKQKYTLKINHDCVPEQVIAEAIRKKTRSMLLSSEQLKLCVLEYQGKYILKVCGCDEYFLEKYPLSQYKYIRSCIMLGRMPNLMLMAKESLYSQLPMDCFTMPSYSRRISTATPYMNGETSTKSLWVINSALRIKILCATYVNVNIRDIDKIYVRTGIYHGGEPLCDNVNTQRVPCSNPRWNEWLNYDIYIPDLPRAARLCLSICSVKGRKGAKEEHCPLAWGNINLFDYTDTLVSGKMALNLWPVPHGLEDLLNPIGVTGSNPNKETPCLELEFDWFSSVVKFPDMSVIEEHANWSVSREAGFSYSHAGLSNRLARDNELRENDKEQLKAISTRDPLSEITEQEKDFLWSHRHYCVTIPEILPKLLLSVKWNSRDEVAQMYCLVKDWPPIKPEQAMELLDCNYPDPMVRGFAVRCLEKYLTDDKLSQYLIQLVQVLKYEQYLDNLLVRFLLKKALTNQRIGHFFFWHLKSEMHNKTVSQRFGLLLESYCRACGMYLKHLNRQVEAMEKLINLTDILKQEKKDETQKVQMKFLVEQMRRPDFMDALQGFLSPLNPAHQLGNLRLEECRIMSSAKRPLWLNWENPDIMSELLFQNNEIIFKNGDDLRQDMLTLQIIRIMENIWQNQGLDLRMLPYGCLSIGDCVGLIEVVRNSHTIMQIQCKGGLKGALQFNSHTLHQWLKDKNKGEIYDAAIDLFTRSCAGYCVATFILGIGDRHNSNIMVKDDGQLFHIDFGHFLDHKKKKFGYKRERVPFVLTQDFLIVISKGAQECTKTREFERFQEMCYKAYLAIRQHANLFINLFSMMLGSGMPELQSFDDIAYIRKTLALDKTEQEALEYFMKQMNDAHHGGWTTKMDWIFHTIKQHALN

Row | IC50 [1] [nM] | IC50 [2] [nM] | IC50 [3] [nM] | IC50 [4] [nM] | Structure (SMILES)
1 | > 10000 | 330 to 332 | 18 | 2710 | CCNC(=O)Nc1ccc(-c2cc(N3CCOC[C@@H]3C)c3nc(C)n(CC)c3n2)cc1
2 | > 10000 | 290 | 64 | 3110 | CCCn1cnc2c(N3CCOC[C@@H]3C)cc(-c3ccc(NC(=O)NCC)cc3)nc21
3 | 4200 | 39 | 5.8 | 330 | CCNC(=O)Nc1ccc(-c2nc3c(c(N4CCOC[C@@H]4C)n2)CCN(C2COC2)C3)cc1 [RG-7603]
